From US12410160B2 (Gilead Sciences, Inc., priority 2021, dated 2025)
Where two headings read alike, the source gives them in different places.

Columns and labels:
human KHK-C = human KHK-C (Homo sapiens (Human), UniProt P50053); assay: KHK Biochemical Assay (IC50), ADP-Glo, KHK-C; conditions: ADP-Glo; average of at least two separate assays
Procedure, shortened: (§1)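 His-tagged enzyme expressed in BL21 (DE3), Ni-NTA purified. Compounds, serially diluted 1:3 in DMSO, pre-incubated 30 min with enzyme in 50 mM Hepes pH 7.4, 140 mM KCl, 5 mM MgCl2, 0.01% Triton-X, then ATP and fructose added; 4 h at room temperature. ADP formation read by ADP-Glo luminescence.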

human KHK-A = human KHK-A (Homo sapiens (Human), UniProt P50053); assay: KHK Biochemical Assay (IC50), ADP-Glo, KHK-A; conditions: ADP-Glo; average of at least two separate assays
human KHK-A, sequence (P50053 other isoform, or with tags, fused parts or gaps): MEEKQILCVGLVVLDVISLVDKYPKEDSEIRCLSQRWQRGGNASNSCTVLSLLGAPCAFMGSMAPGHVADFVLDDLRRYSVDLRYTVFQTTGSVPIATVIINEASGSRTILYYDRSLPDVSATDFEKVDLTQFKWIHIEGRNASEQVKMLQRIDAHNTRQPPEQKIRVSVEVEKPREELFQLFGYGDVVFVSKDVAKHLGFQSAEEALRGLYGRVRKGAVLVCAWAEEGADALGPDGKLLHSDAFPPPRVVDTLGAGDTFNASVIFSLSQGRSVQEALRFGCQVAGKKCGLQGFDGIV
Procedure, shortened: as §1

[1] = molecular target: KHK-C expressed in NRK-52E cells (Homo sapiens (Human), UniProt P50053); assay: KHK-C Cell-based Assay (EC50), NRK CTG, fructose-mediated ATP-depletion
KHK-C expressed in NRK-52E cells, sequence (P50053 whole entry): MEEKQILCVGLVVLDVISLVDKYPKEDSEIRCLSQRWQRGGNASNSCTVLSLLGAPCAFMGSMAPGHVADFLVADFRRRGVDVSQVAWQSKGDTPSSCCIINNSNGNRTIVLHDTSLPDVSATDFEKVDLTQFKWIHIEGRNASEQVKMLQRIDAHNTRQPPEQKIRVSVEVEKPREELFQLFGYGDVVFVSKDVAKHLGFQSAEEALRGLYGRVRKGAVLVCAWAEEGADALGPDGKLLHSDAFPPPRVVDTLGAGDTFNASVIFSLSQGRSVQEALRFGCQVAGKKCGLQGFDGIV
Experimental: Compounds were tested in a high-throughput 384-well assay format for their ability to attenuate fructose-mediated ATP-depletion in Normal Rat Kidney epithelial cells (NRK-52E) using the Cell-Titer Glo (CTG) assay, which measures cellular ATP levels based on luminescence signal by using the luciferase-luciferin system. Compounds were serially diluted (1:3) in DMSO.
The plates were incubated at 37° C., 5% CO2 for one day. Cells were then transduced on day 2 with 200 MOI of Adenovirus (VQAd KHKC C-(K)-DYK ViraQuest Inc.) using the same medium and method as day-1 to induce KHK-C expression in the cells. Cells were incubated at 37° C., 5% CO2 for one day. On day-3, the medium was changed to DMEM medium (Corning, Catalog #10-014-CM) with 0.5% FBS and Penicillin-Streptomycin after washing the cells twice with sterile PBS on the BioTEK EL406 washer and dispenser. Test compounds were then diluted 200-fold into the assay plates using the BioMek FX and were incubated for 1 hour at 37° C., 5% CO2. 25 mM (final concentration) of fructose was then dispensed into the plates using the BioTEK EL406 dispenser and the plates were incubated at 37° C., 5% CO2 for 48 hours before addition of CTG reagent and measurement of luminescence signal.

human KHK-C, sequence (P50053 whole entry): as above

IC50 (human KHK-C)	IC50 (human KHK-A)	EC50 [1]	EC50 ([1]; read-out: NRK CTG EC50, NRK-52E cells, fructose-mediated ATP-depletion, Cell-Titer Glo)	SMILES
55.6 nM	45.2 nM	120 nM		C[C@H]1CCN1c1nc2c(c(-c3ccc(C(=O)NCCO)cc3)n1)CCC2 [Example 91, (S)—N-(2-hydroxyethyl)-4-(2-(2-methylazetidin-1-yl)-6,7-dihydro-5H-cyclopenta[d]pyrimidin-4-yl)benzamide]
93 nM	82.3 nM	368 nM		NS(=O)(=O)c1cccc(-c2nc(N3CC[C@@H]3CO)nc3c2CCC3)c1 [Example 92, (R)-3-(2-(2-(hydroxymethyl)azetidin-1-yl)-6,7-dihydro-5H-cyclopenta[d]pyrimidin-4-yl)benzenesulfonamide]
43.1 nM	60.3 nM	221 nM		NC(=O)c1ccc(-c2nc(N3CC[C@@H]3CO)nc3c2CCC3)cc1 [Example 95, (R)-4-(2-(2-(hydroxymethyl)azetidin-1-yl)-6,7-dihydro-5H-cyclopenta[d]pyrimidin-4-yl)benzamide]
46.2 nM	119 nM	> 5000 nM		C[C@H]1CCN1c1nc2c(c(-c3ccc(-c4nnn[nH]4)cc3)n1)CCC2 [Example 104, (S)-4-(4-(1H-tetrazol-5-yl)phenyl)-2-(2-methylazetidin-1-yl)-6,7-dihydro-5H-cyclopenta[d]pyrimidine]
126 nM	148 nM		209 nM	C[C@@H]1CN(c2nc3c(c(-c4ccc(C(N)=O)cc4)n2)CCC3)[C@H]1C [Example 106]
1060 nM	1550 nM	2920 nM		C[C@H]1CN(c2nc3c(c(-c4ccc(C(N)=O)cc4)n2)CCC3)[C@H]1C [Example 107, 4-(2-((2S,3S)-2,3-dimethylazetidin-1-yl)-6,7-dihydro-5H-cyclopenta[d]pyrimidin-4-yl)benzamide]
2.4 nM	13.4 nM	6.6 nM		C[C@H]1CCN1c1nc2c(c(-c3cn4cnc(C(N)=O)c4s3)n1)CCC2 [Example 119, (S)-2-(2-(2-methylazetidin-1-yl)-6,7-dihydro-5H-cyclopenta[d]pyrimidin-4-yl)imidazo[5,1-b]thiazole-7-carboxamide]
41.8 nM	44.5 nM	51.8 nM		C[C@H]1CCN1c1nc2c(c(-c3ccc(F)c(S(N)(=O)=O)c3)n1)CCC2 [Example 122, (S)-2-fluoro-5-(2-(2-methylazetidin-1-yl)-6,7-dihydro-5H-cyclopenta[d]pyrimidin-4-yl)benzenesulfonamide]
30.5 nM	40.2 nM	62.4 nM		Cc1ccc(-c2nc(N3CC[C@@H]3C)nc3c2CCC3)cc1S(N)(=O)=O [Example 123, (S)-2-methyl-5-(2-(2-methylazetidin-1-yl)-6,7-dihydro-5H-cyclopenta[d]pyrimidin-4-yl)benzenesulfonamide]
328 nM	535 nM	973 nM		C[C@H]1CCN1c1nc2c(c(-c3ccc(C(N)=O)cc3)n1)CC2 [Example 124, (S)-4-(3-(2-methylazetidin-1-yl)-2,4-diazabicyclo[4.2.0]octa-1,3,5-trien-5-yl)benzamide]
572 nM	932 nM	3560 nM		C[C@H]1[C@H](O)CN1c1nc2c(c(-c3ccc(C(N)=O)cc3)n1)CC2 [Example 125]
400 nM	406 nM	253 nM		C[C@H]1CCN1c1nc2c(c(-c3ccc(OC(F)(F)F)c(S(N)(=O)=O)c3)n1)CCC2 [Example 126, (S)-5-(2-(2-methylazetidin-1-yl)-6,7-dihydro-5H-cyclopenta[d]pyrimidin-4-yl)-2-(trifluoromethoxy)benzenesulfonamide]
65.5 nM	99.6 nM	223 nM		C[C@H]1CCN1c1nc2c(c(-c3ccc(C4(O)COC4)cc3)n1)CCC2 [Example 127, (S)-3-(4-(2-(2-methylazetidin-1-yl)-6,7-dihydro-5H-cyclopenta[d]pyrimidin-4-yl)phenyl)oxetan-3-ol]
2.3 nM	2.3 nM	6.3 nM		C[C@H]1CCN1c1nc(-c2ccc(C(N)=O)cc2)c2c(n1)C(F)(F)CC2 [Example 128, (S)-4-(7,7-difluoro-2-(2-methylazetidin-1-yl)-6,7-dihydro-5H-cyclopenta[d]pyrimidin-4-yl)benzamide]
> 5000 nM	> 5000 nM	> 5000 nM		C[C@H]1CCN1c1nc2c(c(-c3cc(S(N)(=O)=O)c(F)cc3F)n1)CCC2 [Example 130, (S)-2,4-difluoro-5-(2-(2-methylazetidin-1-yl)-6,7-dihydro-5H-cyclopenta[d]pyrimidin-4-yl)benzenesulfonamide]
71.8 nM	97.6 nM	131 nM		C[C@H]1CCN1c1nc2c(c(-c3ccc4ccc(=O)[nH]c4c3)n1)CCC2 [Example 132, (S)-7-(2-(2-methylazetidin-1-yl)-6,7-dihydro-5H-cyclopenta[d]pyrimidin-4-yl)quinolin-2(1H)-one]
141 nM	236 nM	> 5000 nM		C[C@H]1CCN1c1nc2c(c(-c3ccc4ccc(=O)n(CCC(=O)O)c4c3)n1)CCC2 [Example 133, (S)-3-(7-(2-(2-methylazetidin-1-yl)-6,7-dihydro-5H-cyclopenta[d]pyrimidin-4-yl)-2-oxoquinolin-1(2H)-yl)propanoic acid]
89.9 nM	158 nM	1030 nM		C[C@H]1CCN1c1nc2c(c(-c3ccc4c(c3)CC(CC(=O)O)C4)n1)CCC2 (stereo partly drawn) [Example 134, 2-(5-(2-((S)-2-methylazetidin-1-yl)-6,7-dihydro-5H-cyclopenta[d]pyrimidin-4-yl)-2,3-dihydro-1H-inden-2-yl)acetic acid]

More lines, now with the values behind:

SMILES	IC50 (human KHK-C)	IC50 (human KHK-A)	EC50 [1]	EC50 ([1]; read-out: NRK CTG EC50, NRK-52E cells, fructose-mediated ATP-depletion, Cell-Titer Glo)
C[C@H]1[C@H](O)CN1c1nc2c(c(-c3ccc(C(N)=O)s3)n1)CCC2 [Example 57, 5-(2-((2S,3R)-3-hydroxy-2-methylazetidin-1-yl)-6,7-dihydro-5H-cyclopenta[d]pyrimidin-4-yl)thiophene-2-carboxamide]	17.8 nM	12.9 nM	65.8 nM	
C[C@H]1[C@H](F)CN1c1nc2c(c(-c3ccc(C(N)=O)s3)n1)CCC2 [Example 58]	7.9 nM	5.8 nM	9.5 nM	
C[C@H]1CCN1c1nc(-c2cccc(C(N)=O)c2)c2c(n1)[C@@H]1CC[C@H]2C1 [Example 63, 3-((5S,8R)-2-((S)-2-methylazetidin-1-yl)-5,6,7,8-tetrahydro-5,8-methanoquinazolin-4-yl)benzamide]	95.3 nM	112 nM	138 nM	
C[C@H]1CCN1c1nc2c(c(-c3cccc(C(=O)NCC(=O)O)c3)n1)CCC2 [Example 66, (S)-(3-(2-(2-methylazetidin-1-yl)-6,7-dihydro-5H-cyclopenta[d]pyrimidin-4-yl)benzoyl)glycine]	54.5 nM	64.8 nM	35500 nM	
C[C@H]1CCN1c1nc2c(c(-c3ccc4[nH]nc(CC(=O)O)c4c3)n1)CCC2 [Example 70, (S)-2-(5-(2-(2-methylazetidin-1-yl)-6,7-dihydro-5H-cyclopenta[d]pyrimidin-4-yl)-1H-indazol-3-yl)acetic acid]	51.7 nM	29.4 nM	> 5000 nM	
C[C@H]1CCN1c1nc2c(c(-c3ccc4c(c3)S(=O)(=O)NC4)n1)CCC2 [Example 72, (S)-6-(2-(2-methylazetidin-1-yl)-6,7-dihydro-5H-cyclopenta[d]pyrimidin-4-yl)-2,3-dihydrobenzo[d]isothiazole 1,1-dioxide]	15 nM	18 nM	29.8 nM	
C[C@H]1CCN1c1nc2c(c(-c3cccc(S(=O)(=O)NCC(=O)O)c3)n1)CCC2 [Example 74, (S)-((3-(2-(2-methylazetidin-1-yl)-6,7-dihydro-5H-cyclopenta[d]pyrimidin-4-yl)phenyl)sulfonyl)glycine]	26.3 nM	22.9 nM	859 nM	
C[C@H]1CCN1c1nc2c(c(-c3cccc(NS(=O)(=O)CC(=O)O)c3)n1)CCC2 [Example 81, (S)-2-(N-(3-(2-(2-methylazetidin-1-yl)-6,7-dihydro-5H-cyclopenta[d]pyrimidin-4-yl)phenyl)sulfamoyl)acetic acid]	7.6 nM	9.5 nM	> 5000 nM	
C[C@H]1[C@H](O)CN1c1nc2c(c(-c3cccc(NS(=O)(=O)CC(=O)O)c3)n1)CCC2 [Example 82]	14.9 nM	14.9 nM	> 5000 nM	
C[C@H]1CCN1c1nc2c(c(-c3cccc(NS(=O)(=O)CCC(=O)O)c3)n1)CCC2 [Example 83, (S)-3-(N-(3-(2-(2-methylazetidin-1-yl)-6,7-dihydro-5H-cyclopenta[d]pyrimidin-4-yl)phenyl)sulfamoyl)propanoic acid]	10.3 nM	32.5 nM	> 5000 nM	
C[C@H]1CCN1c1nc2c(c(-c3ccc4c(c3)S(=O)(=O)NC4=O)n1)CCC2 [Example 86, (S)-6-(2-(2-methylazetidin-1-yl)-6,7-dihydro-5H-cyclopenta[d]pyrimidin-4-yl)benzo[d]isothiazol-3(2H)-one 1,1-dioxide]	38.6 nM	50.2 nM	> 5000 nM	
C[C@H]1CCN1c1nc2c(c(-c3cccc(CS(C)(=O)=O)c3)n1)CCC2 [Example 88, (S)-2-(2-methylazetidin-1-yl)-4-(3-((methylsulfonyl)methyl)phenyl)-6,7-dihydro-5H-cyclopenta[d]pyrimidine]	62.8 nM	75.3 nM	214 nM	
